Test results: patent US20140066444A1, “Method of Treating Cancer” (Exelixis, Inc., priority 2010, published 2014)

Columns and labels:
[1] = system: metastatic castration-resistant prostate cancer (CRPC) with bone metastases; experiment: case studies: metastatic CRPC patients treated with Compound 1; assay type: in vivo, human; details: three metastatic CRPC patients
Source text: Bone metastases are present in 90% of patients with castration-resistant prostate cancer (CRPC), causing significant morbidity and mortality.

oral bioavailability = details: in vivo
[2] = system: endothelial cells and tumor cells; experiment: induction of apoptosis
xenograft tumor models = experiment: xenograft tumor models
MET and VEGFR signaling = experiment: suppression of MET and VEGFR signaling
[3] = system: pancreatic neuroendocrine tumor model; experiment: murine pancreatic neuroendocrine tumor model
[4] = gravimetric vapor sorption (GVS) study; assay type: physicochemical; details: 25° C. and 90% humidity
Method: A gravimetric vapor sorption (GVS) study was run using a standard procedure. Samples were run on a dynamic vapor sorption analyzer (Surface Measurement Systems) running DVSCFR software. Sample sizes were typically 10 mg. A moisture adsorption desorption isotherm was performed as outlined below. The standard isotherm experiment, performed at 25° C., is a two-cycle run, starting at 40% RH, increasing humidity to 90% RH, decreasing humidity to 0% RH, increasing humidity again to 90% RH, and finally decreasing humidity to 0% RH in 10% RH intervals.

| Compound | bone lesions [1] | bone pain [1] | measurable disease [1] | total serum alkaline phosphatase (tALP) levels [1] | oral bioavailability (oral bioavailability) | apoptosis of endothelial cells and tumor cells [2] | tumor regression (xenograft tumor models) | MET and VEGFR signaling (MET and VEGFR signaling) | overall survival [3] | tumor invasiveness and metastasis [3] | weight gain (GVS) [4] [%] |
| --- | --- | --- | --- | --- | --- | --- | --- | --- | --- | --- | --- |
| COc1cc2c(Oc3ccc(NC(=O)C4(C(=O)Nc5ccc(F)cc5)CC4)cc3F)ccnc2cc1OCCCN1CCOCC1 [Compound 1] | near complete resolution of bone lesions | marked reduction | reduction in measurable disease | marked reduction | orally bioavailable | rapidly induces apoptosis | causes tumor regression | suppresses | substantially improves | significantly reduces |  |
| COc1cc2c(Oc3ccc(NC(=O)C4(C(=O)Nc5ccc(F)cc5)CC4)cc3F)ccnc2cc1OCCCN1CCOCC1.O [crystalline Compound 1, N-[3-fluoro-4-({6-(methyloxy)-7-[(3-morpholin-4-ylpropyl)oxy]quinolin-4-yl}oxy)phenyl]-N′-(4-fluorophenyl)cyclopropane-1,1-dicarboxamide crystalline hydrate] |  |  |  |  |  |  |  |  |  |  | 2.5 |
